# Measured values taken from patent US20230172925A1, “SKIN-CARE COMPOSITIONS AND USES THEREOF” (AHAVA - DEAD SEA LABORATORIES LTD., priority 2019, published 2023).
# Entries after “also recorded” stand apart in the source; their conditions may differ.
# Legend:
# [1] = system: human skin explants (epidermis); assay: Human skin organ culture with UVB stressor, viability by MTT assay; format: cell-based; details: UVB 200 mJ/cm2, topical 3 μl before and after irradiation, 48 hours in total; compared to irradiated control
# Description: (§1) Topical exposure till 48 hours in total (24 hr recovery following topical application+24 hr after exposure to UVB irradiation) with UVB radiation as stressor on human skin model
# (§2) The following general procedure was used in the study:
# (§3) Day 1: Topical application of 3 μl of each sample solution on the epidermis of each skin explant. Incubate for 24 hours. SDS 10% was applied only once, and was not farther irradiated with UVB.
# (§4) Day 2: Skin explants were washed once with PBS and irradiated with UVB lamp at 200 mJ/cm2. After radiation it was incubated for 30 min and then topically apply each treatment (sample solution) again. Control was not irradiated under UVB light. UVB radiated control was without any treatment except radiation.
# (§5) Day 3: Viability and Caspase3 activity were measured for the epidermis layer. The medium was collected for cytokines test.
# FIG. 2 illustrates a flow diagram of topical exposure/treatment till 48 hours, 24 hr recovery following topical application +24 hr after exposure to UVB irradiation) with UVB radiation as stressor on human skin model experiment. In the Experiment the SDS irritation control sample was a skin explant that was topical applied with 3 μl SDS 10% solution at day 1 only.
# The viability of the various skin explants was measured by the 5-dimethylthiazol-2-yl]-2,5-diphenyl tetrazolium bromide (MTT) assay.
# [2] = system: human skin explants (epidermis); assay: Human skin organ culture without UVB stressor, topical exposure till 96 hours, viability by MTT assay; format: cell-based; details: no UVB; 96 hours of topical application; vs control
# Description: (§6) Topical Exposure Till 96 Hours without External UVB Radiation as Stressor on Human Skin Model
# (§7) Day 1: Topical application of 3 μl of each solution on the epidermis of each skin explant. Incubate for 24 hours. (SDS Irritation control: topical application of 3 ul SDS 10% was applied on the skin model at day 1 only. The rest of the days samples were untouched).
# (§8) Day 2: Topical application of 3 μl of each solution on the epidermis of each skin explant. Incubate for 24 hours in fresh medium (medium was not collected). (UVB control: after 24 hours incubation with 3 μl H2O skin was irradiated with 200 mJ/cm2 UVB. The rest of the experiment days sample were topically applied with H2O, as control).
# (§9) Day 3: Topical application of 3 μl of each solution on the epidermis of each skin explant. Incubate for 24 hours in fresh medium (medium was collected)—48 hours of total topical incubation.
# (§10) Day 4: Topical application of 3 μl of each solution on the epidermis of each skin explant. Incubate for 24 hours in fresh medium (medium was collected)—72 hours of total topical incubation.
# Day 5: Topical application of 3 μl of each solution on the epidermis of each skin explant. Incubate for 24 hours in fresh medium (medium was collected)—96 hours of total topical incubation. MTT assay was performed. […]
# The viability of the various skin explants was measured by the MTT assay.
# [3] = system: IL-1α; assay: Human skin organ culture without UVB stressor, IL-1α secretion; format: cell-based; details: no UVB; Retinol 1.0%; 48, 72 and 96 hours
# Description: as §6, §7, §8, §9, §10
# (§11) Day 5: Topical application of 3 μl of each solution on the epidermis of each skin explant. Incubate for 24 hours in fresh medium (medium was collected)—96 hours of total topical incubation. MTT assay was performed.
# FIG. 9A illustrates the IL-1α secretion results in the medium. In FIG. 9A the IL-1α secretion of the H2O sample was used as a control (9.0±0.7 pg/ml […]) for each time point. FIG. 9B is a magnification of FIG. 9A.
# [4] = system: IL-1α; assay: Human skin organ culture with UVB stressor, IL-1α secretion in the medium; format: cell-based; details: UVB
# Description: as §1, §2, §3, §4, §5
# FIG. 5 illustrates the IL-1α secretion results in the medium as observed with 3 to 4 repetition of the tests. In FIG. 5 the IL-1α secretion of the irradiated sample “UVB” was selected as 100% and it equals 8.1±1.0 pg/ml.
# [5] = system: TNFα; assay: Human skin organ culture with UVB stressor, TNFα secretion in the medium; format: cell-based; details: UVB
# Description: as §1, §2, §3, §4, §5
# FIG. 4 illustrates the TNFα secretion results in the medium as observed with 2 to 4 repetition of the tests. In FIG. 4 the TNFα secretion of the irradiated sample “UVB” was selected as 100% and it equals 53±30 pg/ml.
# [6] = system: skin equivalents; assay: DNA microarray gene expression in skin equivalents, comparative with 3D complex and Retinol (Example 6); format: cell-based, human; details: Retinol 5 μM
# Description: In the present study the biological activity on gene expression of the pRETINOL complex was compared to the activity of a composition which was previously described in [13] and [14] and referred to herein as 3D complex. The activity was further compared to that observed with Retinol (5 μM of Retinol in double distilled water).
# On each array, treated vs. untreated samples were compared. Each array was processed and the data from all arrays was normalized to get the average expression and log fold change (log FC) for each gene on each array.
# An analysis of full human genome was performed.
# Further to the above analysis, similar to the study presented in Example 5, major skin related pathways were selected from KEGG and wiki pathways list and the p-value and z-score were calculated for these pathways.
# [7] = system: human primary fibroblasts; assay: Hyaluronic acid production assay (ELISA); format: cell-based; details: Retinol 1.0 μM in the culture media; 48 hours
# Description: The human primary fibroblast cell culture was grown at an 80% confluence in Dulbecco's Modified Eagle's High glucose (Hg) medium (DMEM) culture medium containing 10% fetal bovine serum, 100 U/ml penicillin, and 100 U/ml streptomycin. The cells were cultivated in 6 wells plates.
# The pRetinol complex was added at a final concentrations of. Osmoter 0.2%, Dunaliella salina extract 1.2%, Niacinimide 0.04% and 6.24 ppm of β-Carotene i.e., 2.5 times dilution (the dilution was necessary in view of the human primary fibroblast cells culture being more sensitive than skin full organ culture). Retinol was added to the medium at a final concentration of 1.0 μM.
# The cells were incubated at 37° C., 5% CO2 at a 100% RH for 48 hours. After incubation the cells were extracted using RIPA buffer collected to a blending Eppendorf and ground using stain steal beads and a bullet blender for 5 min. The samples were centrifuged for 15 min at 5000 rpm and the supernatant was collected.
# BCA Protein concentration assay were performed on all the samples. The protein level for all samples was dilated to reach a concentration of 0.1 ng/ml of protein, diluted with PBS. Samples contain a protein concentration of 0.1 ng/ml were tested for hyaluronic ELISA assay kit (R&D systems, ELISA kit). Results were obtained as ng/ml of hyaluronic acid per 1 μg of protein. […]
# [8] = system: TNFα; assay: Human skin organ culture without UVB stressor, TNFα secretion; format: cell-based; details: no UVB
# Description: as §6, §7, §8, §9, §10, §11
# FIG. 8 illustrates the TNFα secretion tested results. In FIG. 8 the TNFα secretion of the H2O sample was used as a control (0.35±0.05 pg/ml) for each time point.
compound,measurement,setting,value
CC1=C(/C=C/C(C)=C/C=C/C(C)=C/CO)C(C)(C)CCC1 [Retinol],"viability (MTT, mitochondrial activity) of epidermis",[1],increased mitochondrial activity
same,"viability (MTT, mitochondrial activity) of skin explants",[2],did not cause increase or reduction of viability
same,IL-1α secretion,[3],increased; also recorded: caused an increase
same,increase of IL-1α secretion,[4]; Retinol 0.05% (w/w) in EtOH,83%
same,increase of IL-1α secretion,[4]; Retinol 0.5% (w/w) in EtOH,50%
same,increase of IL-1α secretion,[4]; Retinol 1.0% (w/w) in EtOH,53%
same,reduction of TNFα secretion compared to the irradiated sample,[5]; Retinol 0.5% (w/w) in EtOH,56%
same,reduction of TNFα secretion compared to the irradiated sample,[5]; Retinol 1.0% (w/w) in EtOH,45%
same,z-score,[6]; KEGG_APOPTOSIS,1.0758
same,z-score,[6]; KEGG_BASE_EXCISION_REPAIR,−0.2818
same,z-score,[6]; KEGG_NF_KAPPA_B_SIGNALING_PATHWAY,−0.4673
same,z-score,[6]; KEGG_NOD-LIKE_RECEPTOR SIGNALING PATHWAY,−0.3502
same,z-score,[6]; KEGG_SPHINGOLIPID_METABOLISM,−0.6417
same,z-score,[6]; KEGG_TNF_SIGNALING_PATHWAY,−1.1097
same,z-score,[6]; KEGG_YERSINIA_INFECTION,1.5054
same,z-score,[6]; WIKI_KERATINIZATION,10.548
same,production of hyaluronic acid compared to the control sample,[7],induce the production of hyaluronic acid
same,TNFα secretion,"[8]; Retinol 0.5%, after incubation of 72 hours, H2O control 0.35±0.05 pg/ml",below the detection level
same,TNFα secretion,"[8]; Retinol 1.0%, after incubation of 72 hours, H2O control 0.35±0.05 pg/ml",below the detection level
same,TNFα secretion,"[8]; Retinol for 48, 72 and 96 hours, reduction also observed with ethanol only",caused a reduction
